# Data from US5138101A, “Recovery of high-boiling aldehydes from rhodium-catalyzed hydroformylation processes” (Eastman Kodak Company, priority 1991, dated 1992).
# Experiment: Extraction and back-extraction with p-diisopropylbenzene or 1,7-octadiene: rhodium concentration in both phases, composition of extraction solution
# Type: physicochemical
# Method: Examples […] illustrate yet another embodiment of the process of the present invention wherein extraction solution containing dissolved rhodium is back-extracted with either hydroformylation solvent or olefinic feedstock to reduce the concentration of rhodium in the extraction solution.
# The general procedure described in Examples 31-48 was used to extract 60.5 mL of hydroformylation product solution obtained by the hydroformylation of 1,7 octadiene in the presence of a catalyst system comprising rhodium and BISBI phosphine (Reference Example 9). […] The extraction flask was charged with the hydroformylation product solution, 37 mL methanol, 12 mL water and […] [Na] provided as sodium oleate.
# For Example 88, the extraction mixture was stirred at room temperature for 30 minutes and then drained into a calibrated, addition funnel and allowed to stand for about five minutes to permit phase separation. The volume of the hydroformylation product solution (organic) phase was 45 mL and the volume of the extraction solution phase was 65 ml. Samples of each phase were taken for rhodium and product composition analyses.
# For Example 89, the extraction solution phase separated in Example 88 was added to a clean 250 mL flask along with 30 mL of p-diisopropylbenzene and the mixture was stirred at 50° C. for 30 minutes, was allowed to stand at 50° C. for about 5 minutes to permit phase separation and then each phase was separated and analyzed for composition and rhodium concentration.
# For Example 90, the extraction solution separated in Example 89 was added to a clean 250 mL flask along with another 30 mL of p-diisopropylbenzene hydroformylation solvent. The mixture was agitated at 50° C. for thirty minutes, allowed to stand at 50° C. for 5 minutes to permit phase separation and each phase was analyzed for composition and rhodium concentration.
# This scheme would be useful in a counter-current extraction method for recycling recovered hydroformylation product solution as well as in using the olefinic feed to the reactor as a back extraction solvent for recovering soluble rhodium from the methanol/water extract.
# Example 91 was carried out using the procedure described in Examples 88. The flask was charged with 62 mL of a hydroformylation product solution (Reference Example 10) having a rhodium concentration 166 mg/L and containing 3.01 g of C9-enal, 12.69 g of C10-dial and 37.84 grams of p-diisopropylbenzene. Methanol (37 ml), water (16 ml) and 78 mg Na (as sodium 2-ethylhexanoate) were added to the flask. This mixture was stirred at 50° C. for 30 minutes and then allowed to stand for 5 minutes at 50° C. to permit phase separation. The hydroformylation product solution (organic) phase and the extraction solution phase were both sampled and analyzed for rhodium concentration. The 2 phases were drained into a clean, graduated addition funnel and the volumes of the two phases were measured. The volume of the organic layer was 43 mL and the extraction solution layer was 62 mL.
# For Example 92, the extraction solution phase produced in Example 91 was added to a clean, 250 mL flask along with 30 mL of p-diisopropylbenzene and the mixture was stirred at 50° C. for 30 minutes and then allowed to separate into two phases. The two phases were analyzed for rhodium concentration and composition. The mixture was drained into a clean addition funnel to separate the two phases. For Example 93, the extraction solution phase of Example 92 and 30 mL of 1,7-octadiene were added to a clean, 250 mL flask. This mixture was stirred at 50° C. for 30 minutes and then allowed to separate into two phases which were analyzed for rhodium concentration.
# The amounts (g) of C9-enal, C10-dial in the sample of hydroformylation product solution initially extracted and in the methanol/water extraction solutions resulting from Examples 91, 92 and 93 are given in Table XIII. The ratio given in Table XIII is the weight ratio of C10-dial:C9-enal. […]
# [1] = Example 88, initial extraction, sodium oleate
# [2] = Example 89, first back-extraction, p-diisopropylbenzene, 50° C.
# [3] = Example 90, second back-extraction, p-diisopropylbenzene, 50° C.
# [4] = Example 91, initial extraction, sodium 2-ethylhexanoate, 50° C.
# [5] = Example 92, back-extraction, p-diisopropylbenzene, 50° C.
# [6] = Example 94, initial extraction, no salt, 25° C.
# [7] = Example 95, back-extraction, p-diisopropylbenzene, 50° C.
compound,measurement,setting,value
"[Rh] [Rh, rhodium]","Rhodium Concentration, Extraction Solution Phase",[1],5.2 mg Rh per liter
same,"Rhodium Concentration, Organic Phase",[1],235 mg Rh per liter
same,"Rhodium Concentration, Extraction Solution Phase",[2],1.6 mg Rh per liter
same,"Rhodium Concentration, Organic Phase",[2],7.2 mg Rh per liter
same,"Rhodium Concentration, Extraction Solution Phase",[3],1.0 mg Rh per liter
same,"Rhodium Concentration, Organic Phase",[3],1.2 mg Rh per liter
same,"Rhodium Concentration, Extraction Solution Phase",[4],6.2 mg Rh per liter
same,"Rhodium Concentration, Organic Phase",[4],216 mg Rh per liter
same,"Rhodium Concentration, Extraction Solution Phase",[5],1.0 mg Rh per liter
same,"Rhodium Concentration, Organic Phase",[5],7.0 mg Rh per liter
same,"Rhodium Concentration, Organic Phase","Example 93, back-extraction, 1,7-octadiene, 50° C.",< 1 mg Rh per liter
same,"Rhodium Concentration, Extraction Solution Phase","Example 93, back-extraction, 1,7-octadiene, 50° C., listed as Rhodium",< 1 mg Rh per liter
same,"Rhodium Concentration, Extraction Solution Phase","Example 93, back-extraction, 1,7-octadiene, 50° C., listed as rhodium",below detection limits
same,"Rhodium Concentration, Extraction Solution Phase",[6],37 mg Rh per liter
same,"Rhodium Concentration, Organic Phase",[6],195 mg Rh per liter
same,"Rhodium Concentration, Extraction Solution Phase",[7],33 mg Rh per liter
same,"Rhodium Concentration, Organic Phase",[7],24 mg Rh per liter
